The source of these data is ChEMBL document CHEMBL1201862, “PubChem BioAssay data set” (2004).

The source made the active and inactive calls.

A word on the IC50: it is the point on the concentration scale where inhibition reaches its midpoint. Broadly, the AC50 is the concentration giving half of the maximal activity seen. As a reminder, the EC50 is the concentration at which the effect is half-maximal.

Assay [1] in a line: cells. Type of assay: functional, cell-based.
The subject of assay [2] is A-375. Nature of the assay: proliferation inhibition in MITF-low A375 cells – cell-based, cherry-pick samples, set 2, counter-screen for MITF modulator project, dose response (AID 540335). Format: functional. The following applies: Homo sapiens.
In assay [3] the test system is A-375. Nature of the assay: MITF: Counter assay: A375 proliferation Measured in Cell-Based System Using Plate Reader - 2084-03_Inhibitor_Dose_DryPowder_Activity. [Related pubchem assays (depositor defined):AID488944]. Type of assay: functional. The following applies: Homo sapiens.
Assay [4] concerns BJ. Nature of the assay: BJ-TERT fibroblast viability loss – cell-based, RAS-independent, luminescence, dose response (AID 1933). The conditions noted are these: Homo sapiens, BJ. Format: functional, Homo sapiens.
The nature of assay [5]: COV434 cell viability loss – plate reader, dry powder, SA7, cytotoxicity control for PAX8 inhibitor project, dose response (AID 743145). Format: functional, cell-based.
Assay [6] is described as follows: A2780 cell killing – plate reader, dry powder samples, cytotoxicity control, dose response (AID 743046). Format: functional, cell-based.
The nature of assay [7]: alpha-synuclein stem-loop luciferase translation blockers – H4 neuroglioma cells, luminescence, confirmation (AID 1988). Type of assay: functional, cell-based.
The target of assay [8] is T1, Microphthalmia-associated transcription factor (Homo sapiens, UniProt O75030).
T1 sequence (O75030 whole entry): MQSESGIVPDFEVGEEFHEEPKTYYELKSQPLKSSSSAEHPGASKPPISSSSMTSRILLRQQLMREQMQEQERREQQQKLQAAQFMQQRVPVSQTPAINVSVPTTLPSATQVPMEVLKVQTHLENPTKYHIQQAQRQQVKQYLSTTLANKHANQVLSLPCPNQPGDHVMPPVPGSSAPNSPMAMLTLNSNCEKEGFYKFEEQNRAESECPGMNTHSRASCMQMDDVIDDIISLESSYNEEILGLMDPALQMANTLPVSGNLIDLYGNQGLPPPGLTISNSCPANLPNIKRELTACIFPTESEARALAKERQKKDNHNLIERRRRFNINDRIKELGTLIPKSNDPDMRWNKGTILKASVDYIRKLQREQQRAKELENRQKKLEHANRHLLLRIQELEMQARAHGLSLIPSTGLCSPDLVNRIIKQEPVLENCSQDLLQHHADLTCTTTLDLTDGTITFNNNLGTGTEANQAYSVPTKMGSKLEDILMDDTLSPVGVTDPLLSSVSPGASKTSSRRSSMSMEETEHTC
Kind of assay: reducers of TRPM1 reporter luminescence, concentration series – cell-based, SK-MEL-5, cherry-picked, set 3, MITF inhibitor project, dose response (AID 493073).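 Further: SK-MEL-5 melanoma cells with luciferase driven by the MITF target TRPM1 promoter.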 Format: functional.

The nature of assay [9]: toxicity toward immortalized ovarian surface epithelium – cell-based, plate reader, dry powder samples, cytotoxicity control for PAX8 inhibitor project, dose response (AID 743045). Type of assay: functional.
The test system of assay [10] is BJ. Nature of the assay: cells. The following applies: Homo sapiens, BJ. Type of assay: functional, cell-based, Homo sapiens.
The nature of assay [11]: Luminescence Cell-Based Dose Response HTS to Identify Inhibitors of 5'UTR Stem-Loop Driven Prion Protein mRNA Translation in H4 Neuroglioblastoma Cells. [Related pubchem assays: 1827 (Project Summary), 1813 (Primary HTS)]. Type of assay: functional.
Assay [12] can be described thus: DRD fibroblast viability loss – cell-based, non-viral oncogenic, luminescence, dose response (AID 1934). Format: functional. The following applies: Homo sapiens.
Assay [13] is described as follows: PAX5 cellular inhibition readout – cell-based, plate reader, dry powder samples, selectivity assay for PAX8 inhibitor project, dose response (AID 743047).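 Further: HEK293 cells carrying a Pax5 driven CD19 promoter luciferase reporter; potency of inhibitors that lower reporter luminescence.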 Format: functional.
Assay [14] in a line: COV362 cell viability loss – plate reader, dry powder, SA12, cytotoxicity control for PAX8 inhibitor project, dose response (AID 743144). Format: functional, cell-based.
Assay [15] is described as follows: cells. Format: functional, cell-based. This is another data set of the same source.
Assay [16] can be described thus: alpha-synuclein stem-loop translation blockers – luminescence, H4 neuroglioblastoma cells, dose confirmation, confirmation (AID 2454).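 Further: H4 neuroglioblastoma cells carrying an alpha-synuclein 5'UTR luciferase reporter; potency for inhibition of the luciferase signal.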 Format: functional, cell-based.
The nature of assay [17]: OV-90 cell viability loss – plate reader, dry powder, SA8, PAX8 inhibitor project, dose response (AID 743149). Format: functional, cell-based.
Assay [18] can be described thus: inhibitors acting on PAX2 in cells – cell-based, plate reader, dry powder samples, selectivity assay for PAX8 inhibitor project, dose response (AID 743048).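 Further: HEK293 cells carrying a WT1 promoter luciferase reporter driven by expressed Pax2; potency is for inhibition of Pax2 driven reporter signal.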 Type of assay: functional.
Assay [19] concerns the target Nuclear receptor subfamily 0 group B member 1 (Homo sapiens, UniProt P51843). Format: functional, cell-based.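 Further: HEK293T cells transfected with SF-1 and DAX-1 plus StAR promoter luciferase reporter.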
Another assay addresses Paired box protein Pax-8 (Homo sapiens, UniProt Q06710). Nature of the assay: PAX8 transcriptional activity inhibition in RMG-I – RMG-I cells, luciferase, cherry-pick, dose response (AID 687027).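 Further: luciferase reporter driven by Pax8 target thyroperoxidase promoter measured by SteadyGlo luminescence.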 Type of assay: functional, cell-based.
Assay [20] is described as follows: OVCAR4 cell viability loss – plate reader, dry powder, SA11, cytotoxicity control for PAX8 inhibitor project, dose response (AID 743150). Format: functional, cell-based. The following applies: OVCAR-4.
Assay [21] can be described thus: HEK-293T viability loss after treatment – luminescence, T-cell screen hits, cytotoxicity control for TCR NF-kB inhibitor project, dose response (AID 489026).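 Further: cells exposed to compound about 14 hours before the viability readout.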 Type of assay: functional, cell-based.
A short description of assay [22]: OVCAR-3 cell viability loss – plate reader, dry powder samples, PAX8 inhibitor project, dose response (AID 743044). Format: functional, cell-based.
Assay [23] in a line: luciferase reporter signal suppression in cells – H4 neuroglioma cells, luminescence, dose response (AID 1990). Type of assay: functional, cell-based. (In general: In a reporter assay the amount or activity of a reporter protein is the signal.)
The nature of assay [24]: PAX8-dependent cell viability loss – plate reader, dry powder, dose response (AID 743049). Format: functional, cell-based.
Assay [25] is described as follows: luciferase reporter signal reduction – luminescence, H4-C neuroglioblastoma cells, dose response (AID 2458).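 Further: H4 neuroglioblastoma cells stably carrying a luciferase reporter gene fusion.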 Type of assay: functional, cell-based.
Assay [26] is described as follows: IGROV1 cell killing – plate reader, dry powder samples, PAX8 inhibitor project, dose response (AID 743043). Type of assay: functional, cell-based. The following applies: IGROV-1.
The target in assay [27] is Lysine-specific demethylase 4C (Homo sapiens, UniProt Q9H3R0). Nature of the assay: inhibition of JMJD2C H3K9me3 demethylation – biochemical, DELFIA europium, cherry-picked samples, dose response (AID 488835). Type of assay: functional.
Chain of Lysine-specific demethylase 4C (Q9H3R0 whole entry): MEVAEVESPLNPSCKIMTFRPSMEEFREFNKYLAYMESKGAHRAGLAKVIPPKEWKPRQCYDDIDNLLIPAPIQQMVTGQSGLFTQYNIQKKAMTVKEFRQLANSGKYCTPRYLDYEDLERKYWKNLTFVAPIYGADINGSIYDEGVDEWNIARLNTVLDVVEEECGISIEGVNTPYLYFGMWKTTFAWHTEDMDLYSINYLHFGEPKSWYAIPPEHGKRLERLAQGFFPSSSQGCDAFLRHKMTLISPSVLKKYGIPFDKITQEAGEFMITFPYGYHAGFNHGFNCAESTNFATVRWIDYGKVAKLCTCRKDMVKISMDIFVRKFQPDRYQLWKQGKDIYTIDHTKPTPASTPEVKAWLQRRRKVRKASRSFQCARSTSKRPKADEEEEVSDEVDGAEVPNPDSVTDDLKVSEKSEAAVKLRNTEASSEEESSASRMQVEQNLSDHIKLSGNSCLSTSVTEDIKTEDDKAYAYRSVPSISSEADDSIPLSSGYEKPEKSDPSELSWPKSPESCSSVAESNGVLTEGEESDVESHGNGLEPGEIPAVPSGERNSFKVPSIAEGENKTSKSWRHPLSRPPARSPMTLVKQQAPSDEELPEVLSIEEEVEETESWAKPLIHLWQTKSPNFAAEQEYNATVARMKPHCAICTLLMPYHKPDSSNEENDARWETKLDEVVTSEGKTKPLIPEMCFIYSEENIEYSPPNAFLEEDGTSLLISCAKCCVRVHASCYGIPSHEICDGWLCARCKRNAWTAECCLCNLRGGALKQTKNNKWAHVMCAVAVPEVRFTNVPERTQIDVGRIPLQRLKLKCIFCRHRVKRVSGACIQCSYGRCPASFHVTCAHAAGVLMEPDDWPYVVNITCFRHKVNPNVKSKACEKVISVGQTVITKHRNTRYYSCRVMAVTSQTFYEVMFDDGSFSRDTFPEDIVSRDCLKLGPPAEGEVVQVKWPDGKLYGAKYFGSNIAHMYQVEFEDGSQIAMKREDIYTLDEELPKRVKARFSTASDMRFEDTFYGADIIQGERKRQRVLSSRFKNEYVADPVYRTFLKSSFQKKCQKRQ
Assay [28] concerns the target T2, Tyrosine-protein phosphatase non-receptor type 22 (Homo sapiens, UniProt Q9Y2R2).
T2 sequence (Q9Y2R2 whole entry): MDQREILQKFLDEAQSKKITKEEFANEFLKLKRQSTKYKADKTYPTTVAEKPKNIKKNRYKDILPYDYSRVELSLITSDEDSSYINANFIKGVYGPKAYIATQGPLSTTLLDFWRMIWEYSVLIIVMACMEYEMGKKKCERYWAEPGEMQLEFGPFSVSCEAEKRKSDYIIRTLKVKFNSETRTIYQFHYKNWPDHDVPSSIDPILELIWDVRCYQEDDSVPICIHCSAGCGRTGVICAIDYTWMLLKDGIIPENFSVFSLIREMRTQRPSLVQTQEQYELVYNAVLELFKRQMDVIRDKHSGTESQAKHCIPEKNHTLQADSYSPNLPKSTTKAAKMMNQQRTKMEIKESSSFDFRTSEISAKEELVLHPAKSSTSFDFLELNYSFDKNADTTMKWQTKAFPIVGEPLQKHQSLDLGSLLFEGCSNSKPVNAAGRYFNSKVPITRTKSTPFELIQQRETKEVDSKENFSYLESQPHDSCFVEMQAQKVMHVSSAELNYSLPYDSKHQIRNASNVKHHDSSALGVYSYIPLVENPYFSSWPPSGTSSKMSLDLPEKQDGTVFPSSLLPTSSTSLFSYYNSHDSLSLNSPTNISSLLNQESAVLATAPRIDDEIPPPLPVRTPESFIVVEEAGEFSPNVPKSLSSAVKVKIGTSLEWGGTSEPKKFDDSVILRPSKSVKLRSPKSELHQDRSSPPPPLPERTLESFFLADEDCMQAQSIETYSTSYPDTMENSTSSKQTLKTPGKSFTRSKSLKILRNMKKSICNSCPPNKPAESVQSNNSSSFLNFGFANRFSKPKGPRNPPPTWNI
Format: functional.

For assay [29], the target named is T3, Tyrosine-protein phosphatase non-receptor type 7 (Homo sapiens, UniProt P35236).
T3 sequence (P35236 whole entry): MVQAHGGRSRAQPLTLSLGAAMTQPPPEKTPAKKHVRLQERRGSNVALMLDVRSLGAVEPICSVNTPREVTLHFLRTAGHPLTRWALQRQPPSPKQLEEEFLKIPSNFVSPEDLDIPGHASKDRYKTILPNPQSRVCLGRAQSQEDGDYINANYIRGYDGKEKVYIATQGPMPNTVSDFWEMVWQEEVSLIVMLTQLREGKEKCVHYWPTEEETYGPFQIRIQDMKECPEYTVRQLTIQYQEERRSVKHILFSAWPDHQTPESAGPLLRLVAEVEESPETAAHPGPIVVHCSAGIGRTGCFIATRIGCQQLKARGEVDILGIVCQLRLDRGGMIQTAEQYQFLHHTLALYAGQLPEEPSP
Type of assay: functional.

Assay [30] addresses T2, Tyrosine-protein phosphatase non-receptor type 22. Format: functional. The source holds these as a separate data set.
Assay [31] is described as follows: microbe, parasite or virus in culture. Type of assay: functional. The conditions noted are these: Mycobacterium tuberculosis.
Assay [32] concerns the target Glucose-6-phosphate 1-dehydrogenase (Homo sapiens, UniProt P11413). Nature of the assay: inhibition of Homo sapiens G6PD, dose series – biochemical, fluorescence, selectivity assay for P. falciparum G6PD inhibitor project, dose response (AID 504792). Type of assay: functional.
Assay [33] addresses Heat shock protein HSP 90-alpha (Homo sapiens, UniProt P07900). Format: functional, organism-based.
Assay [34] concerns the target Voltage-gated inwardly rectifying potassium channel KCNH2 (Homo sapiens, UniProt Q12809). The conditions noted are these: Potency.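 Further: confirmatory quantitative high-throughput screen measuring inhibition of hERG channel activity.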

Chain of Nuclear receptor subfamily 0 group B member 1 (P51843 whole entry): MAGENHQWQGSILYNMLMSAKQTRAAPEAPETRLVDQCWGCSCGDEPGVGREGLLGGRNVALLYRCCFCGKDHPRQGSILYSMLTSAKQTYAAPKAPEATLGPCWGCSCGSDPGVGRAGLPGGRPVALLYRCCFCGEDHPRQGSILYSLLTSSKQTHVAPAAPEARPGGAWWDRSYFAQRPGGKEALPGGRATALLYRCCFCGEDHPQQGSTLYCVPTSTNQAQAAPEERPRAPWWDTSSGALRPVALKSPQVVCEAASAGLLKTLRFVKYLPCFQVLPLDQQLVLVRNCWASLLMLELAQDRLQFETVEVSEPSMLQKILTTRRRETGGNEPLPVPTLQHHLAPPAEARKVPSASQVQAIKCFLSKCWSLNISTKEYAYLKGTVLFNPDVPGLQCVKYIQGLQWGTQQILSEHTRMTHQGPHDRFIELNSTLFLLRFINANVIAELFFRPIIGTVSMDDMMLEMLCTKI
Chain of Glucose-6-phosphate 1-dehydrogenase (P11413 whole entry): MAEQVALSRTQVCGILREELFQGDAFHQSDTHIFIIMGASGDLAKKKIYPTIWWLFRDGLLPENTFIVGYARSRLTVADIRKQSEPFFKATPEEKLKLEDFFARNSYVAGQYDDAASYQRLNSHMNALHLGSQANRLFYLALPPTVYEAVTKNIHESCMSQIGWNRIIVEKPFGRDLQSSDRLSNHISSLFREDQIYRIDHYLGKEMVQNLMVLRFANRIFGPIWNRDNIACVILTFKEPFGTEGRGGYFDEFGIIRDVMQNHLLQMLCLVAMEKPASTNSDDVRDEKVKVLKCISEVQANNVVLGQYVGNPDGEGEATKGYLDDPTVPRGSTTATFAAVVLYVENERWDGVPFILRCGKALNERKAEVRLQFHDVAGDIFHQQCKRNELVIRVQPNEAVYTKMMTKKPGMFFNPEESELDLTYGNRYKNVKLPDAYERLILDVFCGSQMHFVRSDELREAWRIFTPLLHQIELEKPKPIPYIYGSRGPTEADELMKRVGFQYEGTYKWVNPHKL
Chain of Paired box protein Pax-8 (Q06710 whole entry): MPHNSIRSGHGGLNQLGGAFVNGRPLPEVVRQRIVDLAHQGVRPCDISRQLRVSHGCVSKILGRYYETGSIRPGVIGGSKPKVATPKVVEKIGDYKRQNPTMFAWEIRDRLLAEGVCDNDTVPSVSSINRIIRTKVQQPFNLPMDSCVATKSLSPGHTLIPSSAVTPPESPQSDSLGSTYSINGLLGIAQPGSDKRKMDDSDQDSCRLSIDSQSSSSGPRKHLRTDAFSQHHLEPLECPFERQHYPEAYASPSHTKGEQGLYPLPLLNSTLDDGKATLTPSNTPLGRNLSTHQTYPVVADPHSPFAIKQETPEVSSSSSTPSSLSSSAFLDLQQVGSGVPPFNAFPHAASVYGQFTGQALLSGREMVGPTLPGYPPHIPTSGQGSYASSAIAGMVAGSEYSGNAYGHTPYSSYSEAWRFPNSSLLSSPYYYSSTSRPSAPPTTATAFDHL
Chain of Voltage-gated inwardly rectifying potassium channel KCNH2 (Q12809 whole entry): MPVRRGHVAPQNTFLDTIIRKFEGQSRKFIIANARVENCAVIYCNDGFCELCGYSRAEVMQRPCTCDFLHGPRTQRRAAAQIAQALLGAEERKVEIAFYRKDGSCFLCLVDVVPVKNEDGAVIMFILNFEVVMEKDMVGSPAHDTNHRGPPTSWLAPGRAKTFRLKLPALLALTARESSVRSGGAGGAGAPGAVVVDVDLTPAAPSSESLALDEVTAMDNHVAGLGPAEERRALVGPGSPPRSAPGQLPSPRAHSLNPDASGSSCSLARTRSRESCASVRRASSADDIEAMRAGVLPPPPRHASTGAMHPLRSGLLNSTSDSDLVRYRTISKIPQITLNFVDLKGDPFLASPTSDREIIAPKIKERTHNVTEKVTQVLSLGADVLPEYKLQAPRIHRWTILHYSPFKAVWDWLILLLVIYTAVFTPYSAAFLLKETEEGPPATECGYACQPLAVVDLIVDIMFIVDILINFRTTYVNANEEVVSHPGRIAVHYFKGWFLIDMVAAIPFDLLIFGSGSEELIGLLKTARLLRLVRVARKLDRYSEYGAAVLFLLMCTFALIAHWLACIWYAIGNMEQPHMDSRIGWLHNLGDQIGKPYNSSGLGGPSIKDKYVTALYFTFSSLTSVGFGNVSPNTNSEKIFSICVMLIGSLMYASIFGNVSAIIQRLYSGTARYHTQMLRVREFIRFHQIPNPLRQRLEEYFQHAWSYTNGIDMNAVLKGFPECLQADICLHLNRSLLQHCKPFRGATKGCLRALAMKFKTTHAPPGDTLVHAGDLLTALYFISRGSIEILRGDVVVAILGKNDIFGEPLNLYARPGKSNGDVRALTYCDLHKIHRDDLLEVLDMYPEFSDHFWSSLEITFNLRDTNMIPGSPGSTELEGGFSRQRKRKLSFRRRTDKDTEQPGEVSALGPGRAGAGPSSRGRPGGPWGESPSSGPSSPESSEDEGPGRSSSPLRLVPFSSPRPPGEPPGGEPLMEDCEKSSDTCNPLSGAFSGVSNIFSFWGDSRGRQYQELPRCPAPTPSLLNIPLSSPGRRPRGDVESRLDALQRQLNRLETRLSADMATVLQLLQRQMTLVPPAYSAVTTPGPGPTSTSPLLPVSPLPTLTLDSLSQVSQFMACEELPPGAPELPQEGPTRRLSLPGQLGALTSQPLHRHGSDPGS

For the molecule `COc1cccc(N2CCN(C(=O)c3ccc(C[S+]([O-])c4ccccc4Cl)o3)CC2)c1` (stereo not given), the figures for the IC50 (in “cells [1]”; in assay [19]; in assay [21]) were > 67.6 µM (inactive), > 67.6 µM (inactive) and 58 µM (inactive), respectively. Moreover, the AC50 was > 35 µM (active) with A-375 [2]; > 35 µM (active) with A-375 [3]; 0.684 µM (active) in assay [5]; 5 µM (active) in [6]; 0.894 µM (active) in [8]; 0.537 µM (active) in assay [9]. Further, the half-maximal activity concentration (AC50) in assay [13] was 3.98 µM (active); in assay [14] it was 2.03 µM (active); in assay [17] it was 2.03 µM (active); in assay [18], 37.5 µM (active); at Paired box protein Pax-8, 0.921 µM (active); in [20], 0.646 µM (active). The AC50 was 0.478 µM (active) in [22], 22 µM (active) in assay [24] and 72 µM (active) in [26]. The EC50 in the assay with BJ [4] was 0.214 µM (active); in [7], < 0.1 µM (active); in the assay with BJ [10], 37.7 µM (inconclusive); in assay [11], < 0.1 µM (active); in assay [12] it was 0.225 µM (active); in “cells [15]” it was 0.345 µM (active). Moreover, the half-maximal effective concentration (EC50) is 0.354 µM (active) in assay [16], < 0.1 µM (active) in assay [23] and 0.202 µM (active) in [25].
On to `Cc1ccc(-c2csc(NC(=O)CSc3nc(C)cc(O)n3)n2)cc1`, for which, in assay [27], the AC50 was 10.6 µM (active).
On to `CCCC(=O)NCCc1cc2ccc(C)c(C)c2nc1O`, for which the IC50 in assay [28], in [29] and in assay [30] was > 79.4 µM (inactive) throughout.
On to `CCCCCCCCn1sccc1=O`, for which the CC50 in [31] was 11.3 µM (active). The IC50 in [32] is 59.3 µM (inactive). The figures for the concentration at half-maximal activity (AC50) in assay [33] and in assay [34] were 0.649 µM (active) and 44.7 µM (inconclusive), respectively.
